Assay: xn = mol fraction of the nth substance listed

NC=O + CCO
Conditions	viscosity [mPa·s]
293.15 K, 101 kPa, x1 = 0.0698	1.251
298.15 K, 100 kPa, x1 = 0.08099	1.17
298.15 K, 100 kPa, x1 = 0.141	1.24
298.15 K, 100 kPa, x1 = 0.1644	1.27
298.15 K, 100 kPa, x1 = 0.2196	1.37
298.15 K, 100 kPa, x1 = 0.25	1.43
298.15 K, 100 kPa, x1 = 0.2924	1.5
298.15 K, 100 kPa, x1 = 0.3698	1.66
298.15 K, 100 kPa, x1 = 0.4031	1.73
298.15 K, 100 kPa, x1 = 0.4124	1.74
298.15 K, 100 kPa, x1 = 0.5124	1.98
298.15 K, 100 kPa, x1 = 0.5644	2.11
298.15 K, 100 kPa, x1 = 0.6278	2.29
298.15 K, 100 kPa, x1 = 0.7077	2.5
298.15 K, 100 kPa, x1 = 0.7726	2.67
298.15 K, 100 kPa, x1 = 0.8608	2.91
298.15 K, 100 kPa, x1 = 0.9558	3.19
298.15 K, 101 kPa, x1 = 0.0698	1.152
298.15 K, 101 kPa, x1 = 0.1005	1.229
298.15 K, 101 kPa, x1 = 0.1991	1.376
298.15 K, 101 kPa, x1 = 0.3014	1.563
298.15 K, 101 kPa, x1 = 0.4071	1.816
298.15 K, 101 kPa, x1 = 0.4991	2.01
298.15 K, 101 kPa, x1 = 0.6093	2.259
298.15 K, 101 kPa, x1 = 0.7024	2.515
298.15 K, 101 kPa, x1 = 0.8108	2.782
298.15 K, 101 kPa, x1 = 0.9	3.054
303.15 K, 101 kPa, x1 = 0.0698	1.043
303.15 K, 101.3 kPa, x1 = 0.0716	0.97
303.15 K, 101.3 kPa, x1 = 0.1365	1.03
303.15 K, 101.3 kPa, x1 = 0.2357	1.1
303.15 K, 101.3 kPa, x1 = 0.3142	1.3
303.15 K, 101.3 kPa, x1 = 0.3842	1.4
303.15 K, 101.3 kPa, x1 = 0.4597	1.5
303.15 K, 101.3 kPa, x1 = 0.5389	1.6
303.15 K, 101.3 kPa, x1 = 0.609	1.8
303.15 K, 101.3 kPa, x1 = 0.6872	1.9
303.15 K, 101.3 kPa, x1 = 0.7741	2.1
303.15 K, 101.3 kPa, x1 = 0.7928	2.2
303.15 K, 101.3 kPa, x1 = 0.926	2.6
308.15 K, 101 kPa, x1 = 0.0698	0.9456
308.15 K, 101.3 kPa, x1 = 0.0716	0.89
308.15 K, 101.3 kPa, x1 = 0.1365	0.93
308.15 K, 101.3 kPa, x1 = 0.2357	1.05
308.15 K, 101.3 kPa, x1 = 0.3142	1.1
308.15 K, 101.3 kPa, x1 = 0.3842	1.2
308.15 K, 101.3 kPa, x1 = 0.4597	1.3
308.15 K, 101.3 kPa, x1 = 0.5389	1.5
308.15 K, 101.3 kPa, x1 = 0.609	1.5
308.15 K, 101.3 kPa, x1 = 0.6872	1.7
308.15 K, 101.3 kPa, x1 = 0.7741	1.8
308.15 K, 101.3 kPa, x1 = 0.7928	1.9
308.15 K, 101.3 kPa, x1 = 0.926	2.3
313.15 K, 101 kPa, x1 = 0.0698	0.8712
313.15 K, 101 kPa, x1 = 0.1005	0.916
313.15 K, 101 kPa, x1 = 0.1991	1.016
313.15 K, 101 kPa, x1 = 0.3014	1.145
313.15 K, 101 kPa, x1 = 0.4071	1.319
313.15 K, 101 kPa, x1 = 0.4991	1.465
313.15 K, 101 kPa, x1 = 0.6093	1.622
313.15 K, 101 kPa, x1 = 0.7024	1.8
313.15 K, 101 kPa, x1 = 0.8108	1.986
313.15 K, 101 kPa, x1 = 0.9	2.174
313.15 K, 101.3 kPa, x1 = 0.0716	0.8
313.15 K, 101.3 kPa, x1 = 0.1365	0.85
313.15 K, 101.3 kPa, x1 = 0.2357	0.95
313.15 K, 101.3 kPa, x1 = 0.3142	1.04
313.15 K, 101.3 kPa, x1 = 0.3842	1.1
313.15 K, 101.3 kPa, x1 = 0.4597	1.2
313.15 K, 101.3 kPa, x1 = 0.5389	1.3
313.15 K, 101.3 kPa, x1 = 0.609	1.4
313.15 K, 101.3 kPa, x1 = 0.6872	1.5
313.15 K, 101.3 kPa, x1 = 0.7741	1.7
313.15 K, 101.3 kPa, x1 = 0.7928	1.7
313.15 K, 101.3 kPa, x1 = 0.926	2
318.15 K, 101 kPa, x1 = 0.0698	0.8052
318.15 K, 101.3 kPa, x1 = 0.0716	0.73
318.15 K, 101.3 kPa, x1 = 0.1365	0.77
318.15 K, 101.3 kPa, x1 = 0.2357	0.86
318.15 K, 101.3 kPa, x1 = 0.3142	0.94
318.15 K, 101.3 kPa, x1 = 0.3842	1.02
318.15 K, 101.3 kPa, x1 = 0.4597	1.1
318.15 K, 101.3 kPa, x1 = 0.5389	1.2
318.15 K, 101.3 kPa, x1 = 0.609	1.2
318.15 K, 101.3 kPa, x1 = 0.6872	1.3
318.15 K, 101.3 kPa, x1 = 0.7741	1.5
318.15 K, 101.3 kPa, x1 = 0.7928	1.5
318.15 K, 101.3 kPa, x1 = 0.926	1.8
323.15 K, 101.3 kPa, x1 = 0.0716	0.64
323.15 K, 101.3 kPa, x1 = 0.1365	0.68
323.15 K, 101.3 kPa, x1 = 0.2357	0.75
323.15 K, 101.3 kPa, x1 = 0.3142	0.83
323.15 K, 101.3 kPa, x1 = 0.3842	0.89
323.15 K, 101.3 kPa, x1 = 0.4597	0.93
323.15 K, 101.3 kPa, x1 = 0.5389	0.98
323.15 K, 101.3 kPa, x1 = 0.609	1.04
323.15 K, 101.3 kPa, x1 = 0.6872	1.1
323.15 K, 101.3 kPa, x1 = 0.7741	1.2
323.15 K, 101.3 kPa, x1 = 0.7928	1.2
323.15 K, 101.3 kPa, x1 = 0.926	1.5

From the CheMixHub viscosity set
